One data set deals with HCT116 xenografts. Description: In vivo response of HCT116 xenografts, tolerability and body weight. The arrangement: species or system CB-17 SCID mice. The following applies: SCID mice with HCT116 xenografts. Here is the method:
HCT116 colon cancer cells were purchased from ATCC (American Type Culture Collections) and cultured in DMEM (Dulbecco's Modified eagle medium—purchased from GIBCO) supplemented with 10% fetal calf serum. Five million cells were injected subcutaneously in the right flank of 6-8 week old male CB-17 SCID mice. When the mean tumor volume reached 80-120 mm^3, mice were randomized into 5 groups (n=5) and received either vehicle (10% NMP, 40% PEG, 50% H2O) or compound at the doses indicated.
Tumor volume and body weight were measured three times weekly. Tumor volume was calculated by the following formula: x^2y/2. Percent tumor growth inhibition after initiation of treatment with compound was calculated by: TGI=100×1−(tumor volumefinal−tumor volumeinitial for compound treated group)/(tumor volumefinal−tumor volumeinitial for […] control group).

The subject of data set [1] is IL-12-yellow fluorescent protein (YFP) reporter mouse bone marrow dendritic cells. Description: IL-12-YFP reporter dendritic cells, flow cytometric analysis. It is filed as cell-based. As to conditions: 24 hours, LPS or Pam3Cys ± 1 μg/ml MDP. As for the experimental part: (§1) IL-12-yellow fluorescent protein (YFP) reporter mouse bone marrow dendritic cells were stimulated for 24 hours with 0.3 ng/ml LPS±1 μg/ml MDP (i.e., NOD2 agonist) in the presence of Example A3 (FIG. 2A). IL-12-yellow fluorescent protein (YFP) reporter mouse bone marrow dendritic cells were stimulated for 24 hours with 0.3 μg/ml Pam3Cys±1 μg/ml MDP (i.e., NOD2 agonist) in the presence of Example A3 (FIG. 2B). […] Data are represented as the mean±SEM of triplicate measurements. Levels of IL-12 p70 (FIG. 2C, left panel) and TNFα (FIG. 2C, right panel) in the cell culture supernatants from A were measured by ELISA techniques with commercially available kits. […] Data are represented as the mean±SEM of triplicate measurements.
(In general: In flow cytometry, cells or beads pass a laser one at a time.)

The next data set deals with IL-12 p70. Description: IL-12 p70 in dendritic cell culture supernatants by ELISA. The data set is classed as cell-based, mouse. As to conditions: supernatants from LPS ± MDP stimulation. Here is the method: as §1
The next data set deals with TNFα. As to the kind of experiment: TNFα in dendritic cell culture supernatants by ELISA. It is filed as cell-based, mouse. As to conditions: supernatants from LPS ± MDP stimulation. As for the experimental part: as §1
In general terms: In an ELISA, binding on a coated surface is turned into a signal by an enzyme label.

Regarding `Cc1ccccc1-c1cc2nc(Nc3cccc(N4CCOCC4)c3)ncc2[nH]1` [Example A3, N-(3-morpholinophenyl)-6-(o-tolyl)-5H-pyrrolo[3,2-d]pyrimidin-2-amine], the “mean body weight loss” value with HCT116 xenografts (92 mg/kg Q.D. p.o.) worked out at 7.8%. Moreover, the tolerability entry in the data set with HCT116 xenografts (Q.D. p.o., 18 days) is given as “well tolerated”. In addition, in the data set with HCT116 xenografts (treated arms versus control), the “mean body weight loss in the treated arms compared to control” value is listed as “less than 6%”. For the same compound, in data set [1], the “cell viability as assessed by 7AAD exclusion” value was “no measurable effect” and the “percentage of YFP positive cells (IL-12 positive cells)” value is “minimal effect”. For the same compound, the “mean fluorescence intensity YFP (amount of IL-12)” value in data set [1] (effect MDP-dependent) was “dose-dependent reduction”. In addition, in the data set on IL-12 p70, the “levels of IL-12 p70 in cell culture supernatants” value is “dose-dependent reduction”. Besides, the “levels of TNFα in cell culture supernatants” value in the data set on TNFα is reported as “dose-dependent reduction”.
